Values after ≈ are worked out from the molar mass of the structure shown.

The values that follow come from publication PMC4366261, “Characterization of the Intestinal Absorption of Seven Flavonoids from the Flowers of Trollius chinensis Using the Caco-2 Cell Monolayer Model” (PLoS ONE, 2015).

Series [1] concerns Caco-2 cell monolayer. The series is described as follows: Transport experiment across Caco-2 cell monolayer (Papp). As to conditions: for Absorption mechanism: from P ratio, time course and concentration course; for P ratio Papp AP→BL/Papp BL→AP: 50 μmol/L, 90 min. Format: in vitro ADME, human. The method, then:
(§1) For cells differentiation to form a confluent monolayer, Caco-2 cells were seeded into the inserts of the 12-well Transwell plates at the density of 1.0×10^5 cells/cm^2. The culture medium was replaced on every other day in the first week, and then at daily intervals for the apical (AP) side and 2 days intervals for the basal (BL) side until the transport experiment was performed 21 days after seeding. The AP and BL sides contained 0.5 and 1.5 mL of culture medium, respectively. […] The cell inserts were considered as qualified only if the resistance reached above 600 Ω cm^2.
(§2) On day 21, the transport experiment was initiated by removal of the culture medium from AP and BL sides. The Caco-2 monolayers were rinsed twice with pre-warmed Hanks balanced salt solution (HBSS) and were incubated with the same solution at 37°C for 30 min. The seven individual test compounds and an equimolar mixture of them were pre-dissolved in DMSO, and then diluted to 25, 50, and 100 μmol/L with an appropriate volume of HBSS to allow the final concentration of DMSO to be less than 1%. The test compounds were added to the AP (0.5 mL) or BL side (1.5 mL), while the receiving chamber contained the corresponding volume of HBSS. Incubation was performed at 37°C for 180 min, with shaking at 50 rpm. At 30, 60, 90, 120, 150, and 180 min, each 0.2 mL of the solution from BL or AP side was collected, and replaced with an equal volume of HBSS. The samples were frozen immediately and stored below-20°C before analysis.
(§3) The apparent permeability coefficients (Papp) were determined in this study by HPLC quantification of the compounds in the receiver chamber after transport across the Caco-2 monolayer. The calculation was carried out in accordance with the formula Papp = (dQ/dt)×(1/A)×(1/C0), wherein dQ/dt was the rate of appearance of the test compound in the receiver compartment (μmol/s); C0 was the initial concentration of test compound in the donor compartment (μmol/mL); and A was the surface area of the Caco-2 monolayer (cm^2). The percentage transported (%) was calculated using the formula % transported = QB/(CS×VD)×100, wherein QB was the quantity of compound in the receiver compartment (μmol); CS was the concentration of test compound in the donor compartment (μmol/mL); VD was the liquid volume of the donor compartment (mL). The transport rate (μmol/h/cm^2) was calculated using the formula transport rate = QB/(t×A), wherein QB was the quantity of compound in the receiver compartment (μmol); t was the incubation time (h); A was the surface area of the Caco-2 monolayer (cm^2).

Assay in series [2]: as above
The class given is in vitro ADME, human. As to conditions: human. The method, then:
as §1, §2, §3

Series [3] in a line: Stability of sample solutions at room temperature by HPLC. Format: physicochemical. The note with it: sample solution at room temperature, HPLC at 0, 1, 2, 4, 6, 12 and 24 h. The method, then:
The intra-day precision was determined by investigating the analytes in sextuplicates during a single day, and the inter-day precision was determined by conducting the intra-day experiment on two consecutive days. […] Each one sample solution of the seven flavonoids was kept at room temperature, and then their stabilities were determined by injecting them into apparatus at 0, 1, 2, 4, 6, 12, and 24 h.

The subject of series [4] is Caco-2 cells. The series is described as follows: MTT assay, survival rate of Caco-2 cells. Format: cell-based, human. The note with it: 4 h. The text has this:
The human colon adenocarcinoma cell line Caco-2 (No. 3111C0001CCC000100, passage 32) was obtained from the Cell Resource Center, Peking Union Medical College (the headquarters of National Infrastructure of Cell Line Resource, NSTI) on May 3rd, 2013. The cell line was checked free of mycoplasma contamination by PCR and culture, its species origin was confirmed with PCR, and its identity was authenticated with STR profiling (FBI, CODIS). All results of the above tests can be viewed on the website (http://cellresource.cn). The cells were cultured in 25 cm^2 flasks in DMEM medium supplemented with 10% (v/v) FBS, 1% (v/v) NEAA, and 1% (v/v) penicillin-streptomycin, in an atmosphere of 5% CO2 at 37°C and constant moisture. The culture medium was replaced every 2 to 3 days, and the cells were split 1:2 or 1:3 as 80% confluence was obtained.
Caco-2 cells at logarithmic growth phase were seeded into 96-well plates and incubated at 37°C in an atmosphere of 5% CO2 and constant moisture in the incubator. After the cells reached confluence, they were cultured in quadruplicate with 100 μL of HBSS solution (negative control) and compound-containing HBSS solution (seven flavonoids or paclitaxel (positive control) at the concentrations of 25, 50, and 100 μmol/L, respectively) for 4 h. Then, HBSS solution was replaced by 100 μL of MTT solution (0.5 mg/mL), and the supernatant was discarded after 4 h of incubation at 37°C. The cells were shaken with 150 μL of DMSO for 10 min, and the absorbance was read on the microplate reader at 570 nm. The survival rate %=A¯/A0¯×100 , wherein A¯ was the average absorbance value of treatment or positive control group, and A0¯ was the average absorbance value of negative control group.

The test system of series [5] is S. epidermidis. Set-up: method as in earlier work. As to conditions: cited from earlier work.
The target of series [6] is T1, P-glycoprotein (P-gp) (Homo sapiens, UniProt P08183).
T1 construct: endogenous in cells; host or cells: Caco-2 cells
Description: Transporter inhibition experiment with verapamil hydrochloride (P-gp) in Caco-2 monolayer. The note with it: 50 μmol/L compound, 100 μmol/L verapamil hydrochloride, AP to BL. The class given is in vitro ADME. The method, then:
On day 21, transport study was initiated by carefully removing the culture medium from both AP and BL sides. The Caco-2 monolayers were rinsed twice with pre-warmed HBSS and were incubated with the same solution at 37°C for 30 min. […] The final concentration of DMSO in these solutions was less than 1%. […] Incubation was performed at 37°C for 180 min, with shaking at 50 rpm. […] The samples were frozen immediately and stored below-20°C before analysis.
For orientation: Passage across Caco-2 layers is used to estimate intestinal permeability.

Series [7] relates to murine ear edema model. The note with it: cited from earlier work.
The test system of series [8] is parainfluenza virus type 3 (Para 3). More on the design: method as in PMID 11849843. The note with it: cited from earlier work.
The subject of series [9] is Staphylococcus aureus. More on the design: method as in earlier work. The note with it: cited from earlier work.
Where [10] appears, read: Caco-2, in the equimolar mixture of the seven flavonoids.
The mark [11] stands for this setting: in the equimolar mixture of the seven flavonoids.

T1 sequence (P08183 whole entry): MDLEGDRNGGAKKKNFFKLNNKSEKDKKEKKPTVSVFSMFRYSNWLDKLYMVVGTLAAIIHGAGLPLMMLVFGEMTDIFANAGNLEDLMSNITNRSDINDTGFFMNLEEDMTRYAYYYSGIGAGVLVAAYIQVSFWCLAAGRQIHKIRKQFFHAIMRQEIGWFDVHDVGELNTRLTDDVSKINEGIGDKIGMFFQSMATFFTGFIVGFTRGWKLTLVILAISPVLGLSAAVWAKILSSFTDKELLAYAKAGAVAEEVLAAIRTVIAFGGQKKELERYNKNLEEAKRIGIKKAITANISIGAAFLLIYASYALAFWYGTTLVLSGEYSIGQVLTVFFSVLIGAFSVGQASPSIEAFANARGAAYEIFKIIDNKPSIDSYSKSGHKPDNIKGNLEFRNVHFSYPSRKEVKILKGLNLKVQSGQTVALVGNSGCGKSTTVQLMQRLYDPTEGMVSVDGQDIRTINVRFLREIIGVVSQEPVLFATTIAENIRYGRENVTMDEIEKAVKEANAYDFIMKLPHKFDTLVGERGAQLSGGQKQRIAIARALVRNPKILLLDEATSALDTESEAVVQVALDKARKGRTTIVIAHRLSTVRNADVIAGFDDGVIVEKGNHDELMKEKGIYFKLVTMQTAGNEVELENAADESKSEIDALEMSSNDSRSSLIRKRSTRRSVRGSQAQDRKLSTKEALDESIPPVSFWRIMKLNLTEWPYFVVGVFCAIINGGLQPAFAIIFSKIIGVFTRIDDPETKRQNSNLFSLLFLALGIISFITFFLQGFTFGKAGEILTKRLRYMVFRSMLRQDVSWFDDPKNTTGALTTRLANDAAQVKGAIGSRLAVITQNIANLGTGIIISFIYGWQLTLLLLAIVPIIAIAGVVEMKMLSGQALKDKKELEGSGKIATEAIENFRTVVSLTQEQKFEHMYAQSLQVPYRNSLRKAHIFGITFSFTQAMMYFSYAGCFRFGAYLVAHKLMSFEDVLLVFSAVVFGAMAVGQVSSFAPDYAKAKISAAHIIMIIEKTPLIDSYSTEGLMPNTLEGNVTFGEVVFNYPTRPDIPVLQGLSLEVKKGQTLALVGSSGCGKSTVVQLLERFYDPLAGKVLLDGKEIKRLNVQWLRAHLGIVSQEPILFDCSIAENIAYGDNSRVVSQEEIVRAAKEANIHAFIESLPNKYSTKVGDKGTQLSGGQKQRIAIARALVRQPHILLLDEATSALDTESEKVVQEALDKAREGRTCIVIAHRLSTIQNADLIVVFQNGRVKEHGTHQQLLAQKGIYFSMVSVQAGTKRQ

Regarding `O=c1cc(-c2ccc(O)cc2)oc2c([C@@H]3O[C@H](CO)[C@@H](O)[C@H](O)[C@H]3O[C@@H]3O[C@H](CO)[C@H](O)[C@H](O)[C@H]3O)c(O)cc(O)c12` [2”-O-β-L-galactopyranosylvitexin, 8-((2S,3R,4S,5S,6R)-4,5-dihydroxy-6-(hydroxymethyl)-3-(((2S,3R,4S,5R,6R)-3,4,5-trihydroxy-6-(hydroxymethyl)tetrahydro-2H-pyran-2-yl)oxy)tetrahydro-2H-pyran-2-yl)-5,7-dihydroxy-2-(4-hydroxyphenyl)-4H-chromen-4-one], the Absorption mechanism entry in series [1] is on record as “transporter mediated efflux in addition to passive diffusion”. Further, the apparent permeability from apical to basolateral (Papp A→B) – broadly, how fast a substance crosses the layer from the apical side – at 90 min, 50 μmol/L in series [2] (setting [10]) was 1.92 ± 0.42 ×10⁻⁶ cm/s; in series [2] (Caco-2, individual compound), 1.85 ± 0.02 ×10⁻⁶ cm/s. For the same compound, the Papp B→A (as a rule, the apparent permeability from the basolateral to the apical side of a cell layer) at 90 min, 50 μmol/L in [2] (setting [10]) came out at 0.81 ± 0.27 ×10⁻⁶ cm/s; in series [2] (Caco-2, individual compound), 4.68 ± 0.02 ×10⁻⁶ cm/s. Further, the “RSD% values for 24-hour stability” value in series [3] worked out at 2.65%.

As for `COc1cc(O)c2c(=O)cc(-c3ccc(O)c(O)c3)oc2c1[C@@H]1O[C@H](CO)[C@@H](O)[C@H](O)[C@H]1O` [Isoswertiajaponin, 2-(3,4-dihydroxyphenyl)-5-hydroxy-7-methoxy-8-((2S,3R,4R,5S,6R)-3,4,5-trihydroxy-6-(hydroxymethyl)tetrahydro-2H-pyran-2-yl)-4H-chromen-4-one], the “Survival rates (%)” value came out at 116.7±8.9% in series [4] (25 μmol/L), 124.6±5.4% in [4] (50 μmol/L) and 109.1±12.6% in series [4] (100 μmol/L). The Absorption mechanism result in [1] was “passive diffusion without participation of transporter”. Also, the “P ratio Papp AP→BL/Papp BL→AP” value is listed as 2.66 in series [1] (setting [11]); 0.83 in series [1] (individual compound); about 1 in [1] (individual compound, listed as isoswertiajaponin). In addition, the Papp A→B at 90 min, 50 μmol/L in series [2] (setting [10]) was determined as 1.44 ± 0.47 ×10⁻⁶ cm/s; in series [2] (Caco-2, individual compound), 0.98 ± 0.03 ×10⁻⁶ cm/s. The Papp B→A at 90 min, 50 μmol/L in series [2] (setting [10]) amounted to 0.54 ± 0.31 ×10⁻⁶ cm/s; in series [2] (Caco-2, individual compound), 1.19 ± 0.07 ×10⁻⁶ cm/s. Also, the “RSD% values for 24-hour stability” value in series [3] turned out to be 2.95%.

With `COc1cc(O)c2c(=O)cc(-c3ccc(O)cc3)oc2c1[C@@H]1O[C@H](CO)[C@@H](O)[C@H](O)[C@H]1O` [Isoswertisin, 5-hydroxy-2-(4-hydroxyphenyl)-7-methoxy-8-((2S,3R,4R,5S,6R)-3,4,5-trihydroxy-6-(hydroxymethyl)tetrahydro-2H-pyran-2-yl)-4H-chromen-4-one], the “Survival rates (%)” value in [4] (25 μmol/L) is reported as 110.8±9.9%; in series [4] (50 μmol/L), 115.3±5.5%; in [4] (100 μmol/L), 116.0±8.6%. In series [1], the Absorption mechanism entry was “passive diffusion without participation of transporter”. In addition, the “P ratio Papp AP→BL/Papp BL→AP” value in [1] (setting [11]) was 1.69; in [1] (individual compound), 1.14; in series [1] (individual compound, listed as isoswertisin), about 1. The Papp A→B at 90 min, 50 μmol/L came to 2.69 ± 0.37 ×10⁻⁶ cm/s in [2] (setting [10]) and 1.07 ± 0.08 ×10⁻⁶ cm/s in series [2] (Caco-2, individual compound). Moreover, the basolateral-to-apical permeability (Papp B→A) at 90 min, 50 μmol/L in [2] (setting [10]) was 1.59 ± 0.2 ×10⁻⁶ cm/s; in series [2] (Caco-2, individual compound), 0.94 ± 0.18 ×10⁻⁶ cm/s. Besides, in [3], the “RSD% values for 24-hour stability” value is on record as 2.82%.

With `O=c1cc(-c2ccc(O)c(O)c2)oc2c([C@@H]3O[C@H](CO)[C@@H](O)[C@H](O)[C@H]3O)c(O)cc(O)c12` [Orientin, 2-(3,4-dihydroxyphenyl)-5,7-dihydroxy-8-((2S,3R,4R,5S,6R)-3,4,5-trihydroxy-6-(hydroxymethyl)tetrahydro-2H-pyran-2-yl)-4H-chromen-4-one], the “MIC toward S. epidermidis” value in series [5] was 25 µg/mL (≈ 55.8 µM). Besides, in [6], the “Substrate of P-gp” value is on record as “substrates of P-gp”. Moreover, in [6] (180 min), the “Effect of verapamil hydrochloride on the transport” value was “increased”. In addition, the “Anti-inflammatory effect against murine ear edema” value in series [7] is recorded as “possess anti-inflammatory effects”. Further, the “Survival rates (%)” value in series [4] (25 μmol/L) is listed as 100.4±1.3%; in series [4] (50 μmol/L) it was 114.3±7.5%; in [4] (100 μmol/L) it was 111.5±2.4%. Moreover, the Absorption mechanism result in series [1] is listed as “transporter mediated efflux in addition to passive diffusion”. Further, the results for the “P ratio Papp AP→BL/Papp BL→AP” value in series [1] (setting [11]) and in series [1] (individual compound) were 1.29 and 0.66, respectively. Besides, the apical-to-basolateral permeability (Papp A→B) at 90 min, 50 μmol/L in series [2] (setting [10]) turned out to be 1.14 ± 0.27 ×10⁻⁶ cm/s; in series [2] (Caco-2, individual compound), 0.75 ± 0.05 ×10⁻⁶ cm/s. In addition, the Papp B→A at 90 min, 50 μmol/L turned out to be 0.88 ± 0.31 ×10⁻⁶ cm/s in series [2] (setting [10]) and 1.14 ± 0.08 ×10⁻⁶ cm/s in series [2] (Caco-2, individual compound). The “RSD% values for 24-hour stability” value in series [3] was found to be 2.35%. Also, the “IC50 against parainfluenza virus type 3” value in series [8] was 11.7 µg/mL (≈ 26.1 µM). Moreover, in series [9], the “MIC toward S. aureus” value was 25 µg/mL (≈ 55.8 µM).

For `CC(=O)O[C@H]1C(=O)[C@@]2(C)[C@H]([C@H](OC(=O)c3ccccc3)[C@]3(O)C[C@H](OC(=O)[C@H](O)[C@@H](NC(=O)c4ccccc4)c4ccccc4)C(C)=C1C3(C)C)[C@]1(OC(C)=O)CO[C@@H]1C[C@@H]2O` [Paclitaxel, reference compound], the “Survival rates (%)” value in [4] (25 μmol/L) was 67.3±8.2%; in [4] (25 μmol/L, listed as paclitaxel), 67.3%; in [4] (50 μmol/L) it was 45.5±6.7%; in series [4] (50 μmol/L, listed as paclitaxel), 45.5%; in series [4] (100 μmol/L), 37.4±3.5%; in series [4] (100 μmol/L, listed as paclitaxel) it was 37.4%.

With `CC(C)NCC(O)COc1cccc2ccccc12` (stereo not drawn) [propranolol, reference compound], in [2] (Caco-2, standard compounds, validation of the monolayer model), the Papp (as a rule, a coefficient for how fast a substance crosses the barrier) came out at 14.4 ×10⁻⁶ cm/s.
